The source of these data is patent US4599362A, “2-aryl-ethyl ether derivatives and insecticidal and acaricidal agents containing said derivatives” (priority 1980, dated 1986).

Read-outs that look alike come from different tables or passages of the source.

Series [1] relates to Second-instar and fifth-instar larvae of tobacco cutworm. Kind of series: Test 2: Tobacco Cutworm Larva Dipping Test. The format is in vivo. How it is done:
(§1) To a mixture of 20 parts of the compound of the present invention and 20 parts of Sorpol SM-200 (registered trademark for the product supplied by Toho Chemical Industrial Co., Ltd.) was added 60 parts of xylol, and the mixture was sufficiently blended. The obtained emulsifiable concentrate was diluted at a predetermined concentration with distilled water, and the obtained dilution was used.
A dilution having a chemical concentration of 100 or 20 ppm was prepared in the same manner as described in Test 1.
Second-instar and fifth-instar larvae of tobacco cutworm were dipped in the dilution for 5 seconds, and the excessive dilution was removed by a filter paper. Then, the larvae were set free in a plastic cup and an artificial diet was supplied thereto. The cup was allowed to stand still in a thermostat chamber maintained at 25° C. After 24 hours, the numbers of the killed and living larvae were counted and the mortality was calculated. The test was made on three cups and the result was expressed by an average value.

Series [2] in a line: Test 9: Toxicity Test (acute oral, mice). The settings on record: mouse, in vivo, po. As for the experimental part:
In the fish toxicity test, the test compound was dissolved in acetone to form a 1% solution, and a predetermined amount of the solution was used. In the mouse toxicity test, the test compound of the present invention was dissolved or suspended in corn oil, and a predetermined amount of the solution or suspension was used.
A predetermined amount of a solution or suspension of a test compound in corn oil was orally administered to male mice having a body weight of 19 to 23 g (0.2 ml per 10 g of the body weight). After 7 days, the number of killed mice was counted and the influences on the mice were examined.

In a further series the test system is German cockroach. The series is described as follows: Test 7: Effect on German Cockroach. The settings on record: Blattella germanica, male adults, 24 hours, agonized and killed; for mortality at 10 mg/m2: 10 mg/m^2; for mortality at 50 mg/m2: 50 mg/m^2. It counts as in vivo. As for the experimental part:
The bottom face of a high Petri dish having a diameter of 9 cm and a height of 9 cm was treated with 50 or 10 mg/m^2 of a test compound and the dish was air-dried. In order to prevent the adults from escaping from the dish, the inner wall of the dish was treated with butter. Then, 10 male adults of German cockroach were set free in each dish, and the dish was placed in a thermostat chamber maintained at 25° C. After 24 hours, the number of agonized and killed adults was counted. The test was made on two dishes and the average value was calculated.

Series [3] deals with resistant green rice leafhopper (collected at Nakagawara). The series is described as follows: Test 3: Effect on Resistant Green Rice Leafhopper. The format is in vivo, Nephotettix cincticeps Uhler. Conditions: Nephotettix cincticeps, 24 h, read-out: Mortality (%) Green Rice Leafhopper Collected at Nakagawara. How it is done: as §1
(§2) Seedlings (having 2 to 3 leaves) of paddy rice were hydroponically cultured in a pot having a diameter of 5 cm. A chemical dilution having a concentration of 100 or 20 ppm, prepared in the same manner as described in Test 1, was applied with a sprayer at a rate of 3 ml per pot. The treated seedlings were air-dried and covered with a metal net cylinder, and female adults of resistant green rice leafhopper (collected at Nakagawara) and sensitive green rice leafhopper (collected at Chigasaki) were set, respectively, free in the pot at a density of 10 adults per pot. After of 24 hours, the numbers of killed and living adults were counted and the mortality was calculated. The test was made on three pots and the average value was calculated.

The subject of a further series is two-spotted spider mite. Kind of series: Test 6: Effect on Two-Spotted Spider mite adults. The settings on record: Tetranychus urticae; 500 ppm; adults; 24 hours; read-out: Mortality (%). The format is in vivo. How it is done: as §1
A kidney bean leaf disc perforated with a cork borer (15 mm in diameter) was placed on water-impreganated absorbent cotton (2 cm×2 cm), and 10 adults of two-spotted spider mite were set free. A chemical dilution having a concentration of 500 ppm was applied with an applicator in an amount of 3 ml.
The leaf disc-placed absorbent cotton was placed in a thermostat chamber maintained at 25° C. After 24 hours, the number of killed adults was counted and the mortality was calculated. The test was made on three leaf discs and the average value was calculated.

In series [4] the test system is sensitive green rice leafhopper (collected at Chigasaki). Kind of series: Test 3: Effect on Sensitive Green Rice Leafhopper. It counts as in vivo. Conditions: Nephotettix cincticeps, female adults, 24 hours. How it is done: as §1, §2
The test system of series [5] is third-instar larvae of diamond back moth. The series is described as follows: Test 4: Effect on Diamond Back Moth. It counts as in vivo. The settings on record: Plutella xylostella, 24 hours. As for the experimental part:
as §1
Cabbage leaves were spread in a plastic cup, and 10 third-instar larvae of diamond back moth were set free in the cup.
A chemical dilution having a concentration of 100 or 20 ppm, prepared in the same manner as described in Test 1, was applied from an applicator at a rate of 3 ml per cup.
After scattering of the chemical dilution, the cup was covered, and after 24 hours, the numbers of killed and living larvae were counted and the mortality was calculated. The test was made on three cups and the average value was calculated.

In a further series the test system is green peach aphids. The series is described as follows: Test 5: Effect on green peach Aphid. It counts as in vivo. The settings on record: Myzus persicae, 24 hours, mortality class, read-out: Insecticidal Activity. As for the experimental part: as §1
Seedlings (having 3 to 4 leaves) of an eggplant grown on a pot were inoculated with green peach aphids and the insects were allowed to grow. The number of the insects was counted. A chemical dilution having a concentration of 100 ppm, prepared in the same manner as described in Test 1, was applied with a spray gun at a rate of 10 ml per pot. Then, the pot was placed in a glass green house. After 24 hours, the number of living insects was counted and the mortality was calculated.
The test was made on three pots, and the average value was calculated. In Table 6, mark "A" indicates a mortality higher than 95%, mark "B" indicates a mortality of 80 to 95%, mark "C" indicates a mortality of 50 to 80%, and mark "D" indicates a mortality lower than 50%.

Where [6] appears, read: 20 ppm, second-instar larvae, 24 hours, read-out: Mortality (%) Second-Instar Larvae.
Setting [7] is: 100 ppm, second-instar larvae, 24 hours, read-out: Mortality (%) Second-Instar Larvae.
Where [8] appears, read: topical, 24 h, read-out: Mortality (%) Fifth-Instar Larvae.

With `CC(C)(COCc1ccc(F)c(Oc2ccccc2)c1)c1ccc(F)cc1` [Compound 29, 3-Phenoxy-4-fluorobenzyl 2-(4-fluorophenyl)-2-methylpropyl ether], the mortality at 20 ppm in series [1] (setting [6]), in series [1] (setting [8]), in series [3], in series [4] and in series [5] was 100% each time. Further, the mortality at 100 ppm in series [1] (setting [7]), in series [1] (setting [8]), in series [3], in series [4] and in series [5] was 100% throughout. Further, in series [2], the LD50 (as a rule, the dose expected to kill half of the subjects tested) at 168 h is over 500 mg/kg. The mortality at 10 mg/m2 in the series on German cockroach stood at 100%. Also, the mortality at 50 mg/m2 with German cockroach is 100%. Also, the mortality at 500 ppm with two-spotted spider mite was determined as 100%.
As for `CC(C)C(C)(COCc1ccc(F)c(Oc2ccccc2)c1)c1ccc(Cl)cc1` (stereo not shown) [Compound 25, 3-phenoxy-4-fluorobenzyl 2-(4-chlorophenyl)-2,3-dimethylbutyl ether], the mortality at 100 ppm with green peach aphids was 80 to 95%.
In the case of `CC(C)(COCc1ccc(F)c(Oc2ccccc2)c1)c1ccc(OC(F)F)cc1` [Compound 21, 3-Phenoxy-4-fluorobenzyl 2-(4-difluoromethoxyphenyl)-2-methylpropyl ether], the mortality at 20 ppm in series [1] (setting [6]), in series [1] (setting [8]), in series [3], in series [4] and in series [5] was 100% each time. Further, the mortality at 100 ppm is 100% in series [1] (setting [7]); 100% in series [1] (setting [8]); 100% in series [3]; over 95% in the series with green peach aphids; 100% in series [4]; 100% in series [5]. For the same molecule, the mortality at 10 mg/m2 in the series with German cockroach came to 100%. In the series on German cockroach, this molecule showed a mortality at 50 mg/m2 of 100%. In addition, the mortality at 500 ppm with two-spotted spider mite turned out to be 100%.
The molecule `CCOCCOc1ccc(C(C)(C)COCc2ccc(F)c(Oc3ccccc3)c2)cc1` [Compound 39] yielded a median lethal dose (LD50) at 168 h in series [2] of over 500 mg/kg. In addition, in the series with two-spotted spider mite, the mortality at 500 ppm came out at 100%.
On to `CCOc1ccc(C(C)(C)COCc2ccc(F)c(Oc3ccccc3)c2)cc1Cl` [Compound 59], for which the mortality at 20 ppm in series [1] (setting [6]), in series [1] (setting [8]), in series [3], in series [4] and in series [5] was 100% each time. In addition, the mortality at 100 ppm in series [1] (setting [7]), in series [1] (setting [8]), in series [3], in series [4] and in series [5] was 100% each time. The molecule further came in with an LD50 at 168 h in series [2] of over 500 mg/kg. The mortality at 10 mg/m2 with German cockroach is 100%. In addition, the mortality at 50 mg/m2 in the series with German cockroach came to 100%.
The molecule `Cc1ccc2cc(C(C)(C)COCc3ccc(F)c(Oc4ccccc4)c3)ccc2c1` [Compound 44, 3-Phenoxy-4-fluorobenzyl 2-(6-methyl-2-naphthyl)-2-methylpropyl ether] yielded a mortality at 10 mg/m2 in the series with German cockroach of 100%. This molecule also yielded a mortality at 50 mg/m2 with German cockroach of 100%. For the same molecule, the mortality at 20 ppm in series [3] and in series [4] was 100% throughout. Besides, the mortality at 100 ppm in series [3] is 100%; with green peach aphids, over 95%; in series [4], 100%. Further, the mortality at 500 ppm in the series with two-spotted spider mite was 95%.
With `CC(C)Oc1ccc(C(C)(C)COCc2ccc(F)c(Oc3ccccc3)c2)cc1` [Compound 41], the mortality at 20 ppm in series [1] (setting [6]), in series [1] (setting [8]), in series [3], in series [4] and in series [5] was 100% in each case. In addition, the mortality at 100 ppm in series [1] (setting [7]) was 100%; in series [1] (setting [8]) it was 100%; in series [3] it was 100%; in the series with green peach aphids it was over 95%; in series [4], 100%; in series [5] it was 100%. Further, in the series on German cockroach, the mortality at 10 mg/m2 amounted to 100%. In the series with German cockroach, this molecule registered a mortality at 50 mg/m2 of 100%. In addition, the mortality at 500 ppm in the series on two-spotted spider mite turned out to be 90%.
For the molecule `CCC(COCc1ccc(F)c(Oc2cccc(Cl)c2)c1)c1ccc(Cl)cc1` (stereo not shown) [Compound 34, 3-(3-Chlorophenoxy)-4-fluorobenzyl 2-(4-chlorophenyl)-butyl ether], the mortality at 100 ppm in the series with green peach aphids was in the range of 80 to 95%.
As for `CCSc1ccc(C(C)(C)COCc2ccc(F)c(Oc3ccccc3)c2)cc1` [Compound 42, 3-Phenoxy-4-fluorobenzyl 2-(4-ethylthiophenyl)-2-methylpropyl ether], the mortality at 100 ppm in the series with green peach aphids is over 95%; in series [5], 100%. Moreover, the mortality at 500 ppm in the series on two-spotted spider mite worked out at 100%. The molecule also had a mortality at 20 ppm in series [5] of 100%.
On to `CC(C)COc1ccc(C(C)(C)COCc2ccc(F)c(Oc3ccccc3)c2)cc1` [Compound 45], for which the mortality at 10 mg/m2 with German cockroach stood at 90%. In addition, the mortality at 50 mg/m2 with German cockroach stood at 100%. For the same molecule, the figures for the mortality at 20 ppm in series [3], in series [4] and in series [5] were 100%, 100% and 80%, respectively. In addition, the mortality at 100 ppm in series [3] is 100%; in the series on green peach aphids it was over 95%; in series [4] it was 100%; in series [5], 100%.
Take `COc1ccc(C(C)(C)COCc2ccc(F)c(Oc3ccccc3)c2)cc1OC` [Compound 56]: the LD50 at 168 h in series [2] is over 500 mg/kg. Moreover, the mortality at 500 ppm in the series on two-spotted spider mite came out at 100%.
For `CCOc1ccc(C(C)(C)COCc2ccc(F)c(Oc3ccccc3)c2)cc1OC` [Compound 64], the mortality at 10 mg/m2 in the series on German cockroach turned out to be 100%. Also, the mortality at 50 mg/m2 in the series on German cockroach came to 100%. Moreover, the mortality at 20 ppm in series [3] and in series [4] was 100% each time. Further, the mortality at 100 ppm is 100% in series [3], over 95% with green peach aphids and 100% in series [4]. In the series with two-spotted spider mite, the mortality at 500 ppm was 100%.
In the series with German cockroach, `CCOc1ccc(C(C)COCc2ccc(F)c(Oc3ccccc3)c2)cc1` (stereo not shown) [Compound 43] came in with a mortality at 10 mg/m2 of 100%. This molecule had a mortality at 50 mg/m2 with German cockroach of 100%. For the same molecule, the mortality at 20 ppm in series [3] and in series [4] was 100% each time. Besides, the results for the mortality at 100 ppm (in series [3]; in the series with green peach aphids; in series [4]) were 100%, over 95% and 100%, respectively.
